Consider 19 compounds from PubChem BioAssay (NCI).

Holding throughout (test): growth of human tumour cells (NCI), 48 h
For experiment [1], the system named is HCT-116 colon.
Experiment [2] relates to 786-0 renal.
The test system of experiment [3] is K-562 leukemia.
The subject of experiment [4] is M14 melanoma.
In experiment [5] the test system is IGROV1 ovarian.
In experiment [6] the test system is SNB-19 CNS.
The subject of experiment [7] is HL-60(TB) leukemia.
Experiment [8] has as its system OVCAR-3 ovarian.
In experiment [9] the test system is NCI-H522 lung.
Experiment [10] relates to HOP-62 NSCLC.

“And” between values parts separate entries of the source, which are not always exact repeats. Identical values can stand only once.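 Each compound was tested at five concentrations against cells in 96-well plates for 48 hours. GI50: concentration for 50% inhibition of growth. The concentration for full growth arrest is given as TGI.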 Bounds are passed on as bounds.

For the compound `c1ccc(-c2cc3n4c(-c5ccccc5)nn(-c5ccccc5)c4cnc-3n2)cc1`, the GI50 in [1] was 3.61 µM; in [2] it was 19.8 µM; in experiment [3], more than 50 µM; in experiment [4], more than 50 µM; in experiment [5] it was more than 50 µM; in experiment [6], 12.5 µM. Further, the GI50 in [7] is more than 50 µM; in [8], more than 50 µM; in [9] it was more than 50 µM; in [10] it was 13.2 µM. In addition, the TGI in [1], in experiment [2], in experiment [3], in [4], in experiment [5] and in [6] was more than 50 µM in each case. For the same compound, the TGI in experiment [7], in experiment [8], in [9] and in experiment [10] was more than 50 µM throughout.
On to `O=C1C(=Cc2ccc(F)cc2)C(=O)c2ccccc21`, for which the TGI in [1], in experiment [2], in experiment [3], in experiment [4], in experiment [5] and in experiment [6] was more than 100 µM in each case. Besides, the TGI in [7], in experiment [8], in experiment [9] and in experiment [10] was more than 100 µM in each case.
As to `COC(=O)C(=O)C(C#N)c1c(Cl)cccc1Cl` (stereo not given), the TGI in [1], in experiment [2], in experiment [3], in experiment [4], in experiment [5] and in experiment [6] was more than 100 µM throughout. In addition, the TGI in experiment [7], in [8], in experiment [9] and in experiment [10] was more than 100 µM throughout.
As for `CCSc1nc(N)c2cnn(CC)c2n1`, the GI50 in experiment [1] was 5.94 µM; in experiment [2] it was 26.5 µM; in experiment [3], 9.11 µM; in [4], 15.1 µM; in experiment [5] it was 2.14 µM; in experiment [6], 30.2 µM. Further, the GI50 in experiment [7] is 2.33 µM; in experiment [8], 4.59 µM; in experiment [9] it was more than 100 µM; in experiment [10], 20.1 µM. For the same compound, the TGI in experiment [1] was 32.8 µM; in experiment [2], more than 100 µM; in experiment [3], more than 100 µM; in experiment [4] it was 30.5 µM; in experiment [5], 9.13 µM; in experiment [6], more than 100 µM. Further, the TGI was 32.5 µM in experiment [7], 42.6 µM in experiment [8], more than 100 µM in [9] and 80.7 µM in experiment [10].
On to `Cc1c2ccccc2c(C)n2c1nc1cc(Cl)c(Cl)cc12`, for which the GI50 in experiment [1] was 18.6 µM; in [2], more than 100 µM; in [3] it was 14.3 µM; in experiment [4], more than 100 µM; in experiment [5], 8.62 µM; in experiment [6] it was more than 100 µM. Further, the GI50 in [7] is 17.5 µM; in [8], 18.6 µM; in experiment [9], 15.1 µM; in [10], more than 100 µM. Further, the TGI in experiment [1] was more than 100 µM; in experiment [2], more than 100 µM; in experiment [3] it was 72.1 µM; in [4], more than 100 µM; in experiment [5] it was more than 100 µM; in experiment [6], more than 100 µM. The TGI in experiment [7] was 9.71 µM and 77.1 µM; in experiment [9] it was 80.3 µM; in experiment [10], more than 100 µM.
In the case of `CC(=O)[O][Hg][c]1s[c]([Hg][O]C(C)=O)[c]([Hg][O]C(C)=O)[c]1[Hg][O]C(C)=O`, the GI50 in experiment [1] is 7.12 µM; in [2], 2.48 µM; in experiment [3] it was 1.3 µM; in experiment [4], 1.98 µM; in experiment [5], 3.61 µM; in [6], 4.27 µM. Besides, the GI50 in experiment [7] is 5.12 µM; in [8], 21.4 µM; in experiment [9], 2.54 µM; in experiment [10] it was 4.91 µM. Also, the TGI in experiment [1] is more than 100 µM; in [2] it was 41.8 µM; in experiment [3], 18.8 µM; in [4], 14 µM; in experiment [5], 23.4 µM; in experiment [6], 16.3 µM. Also, the TGI was more than 100 µM in experiment [7], more than 100 µM in [8], more than 100 µM in experiment [9] and 16.5 µM in experiment [10].
`CCOC(=O)N(O)c1ccc(/C=C/c2ccccc2)cc1`: the GI50 in experiment [1] is 0.407 µM; in experiment [2] it was 10.9 µM; in experiment [3] it was 5.88 µM; in experiment [4] it was 7.17 µM; in experiment [5], 0.319 µM; in experiment [6] it was 18.5 µM. For the same compound, the GI50 in [7] was 8.59 µM; in experiment [8], 3.16 µM; in experiment [9], 7 µM; in [10], 7.45 µM. The TGI in [1] was 10.5 µM; in [2] it was more than 51.1 µM; in experiment [3], more than 100 µM; in experiment [4] it was 26.8 µM; in [5], 3.21 µM; in experiment [6] it was more than 100 µM. The TGI in [7] is 40.5 µM; in experiment [8], 15.7 µM; in experiment [9], 28 µM; in experiment [10], more than 59 µM.
As for `O=C1CC2OCC=C3CN4CCC5(C(=O)O)C(N1)C2C3CC45` (stereo not given), the TGI in experiment [1], in experiment [2], in experiment [3], in [4], in experiment [5] and in experiment [6] was more than 100 µM each time. Also, the TGI in [7], in experiment [8], in [9] and in experiment [10] was more than 100 µM each time.
Take `COc1cc(CCc2ccncc2)cc(OC)c1OC`: the TGI in experiment [1], in experiment [2], in experiment [3], in experiment [4], in experiment [5] and in [6] was more than 100 µM throughout. The TGI in experiment [7], in experiment [8], in [9] and in [10] was more than 100 µM each time.
Regarding `CC[C@@H](C(=O)[C@@H](C)[C@@H](O)[C@H](C)[C@@H]1O[C@@H]([C@@H](CC)C(=O)O)CC[C@@H]1C)[C@H]1O[C@]2(C=C[C@@H](O)[C@]3(CC[C@@](C)([C@H]4CC[C@](O)(CC)[C@H](C)O4)O3)O2)[C@H](C)C[C@@H]1C`, the GI50 in experiment [1] is 0.63 µM; in experiment [2] it was 1.25 µM; in experiment [3], 0.207 µM; in [4] it was 1.39 µM; in experiment [5], 2.05 µM; in experiment [6], 0.689 µM. Moreover, the GI50 was 0.14 µM in experiment [7], 0.166 µM in [8], 0.0469 µM in [9] and 1.12 µM in [10]. In addition, the TGI is 30.2 µM in experiment [1]; 19.2 µM in experiment [2]; 5.72 µM in experiment [3]; 3.05 µM in [4]; more than 84.7 µM in experiment [5]; 5.97 µM in experiment [6]. Besides, the TGI in [7] came out at 0.815 µM; in experiment [8] it was 25.8 µM; in [9], 0.47 µM; in experiment [10], 16.9 µM.
As for `CC1=CC(=O)N2C(OC[C@@H]2c2ccccc2)O1` (stereo not given in full), the TGI in experiment [1], in [2], in experiment [3], in [4], in experiment [5] and in [6] was more than 100 µM throughout. Also, the TGI in [7], in experiment [8], in experiment [9] and in [10] was more than 100 µM in each case.
`N#C/C(=C1\OC(N)=C(c2ccc(Cl)cc2)C1=O)c1ccc(Cl)cc1`: the TGI in experiment [1] was 32.4 µM; in experiment [2], 29.4 µM; in [3] it was more than 100 µM; in [4], 29.8 µM; in experiment [5], 38.3 µM; in experiment [6], 39.6 µM. In addition, the TGI turned out to be 44.4 µM in [7], 28 µM in [8], 24.6 µM in experiment [9] and 33.4 µM in [10].
For the compound `O=C(N/N=C/c1ccc(N(CCCl)CCCl)cc1)c1ccc(C(=O)N/N=C/c2ccc(N(CCCl)CCCl)cc2)cc1`, the GI50 in experiment [1] was 2.48 µM; in experiment [2], 2.55 µM; in experiment [3], 20.9 µM; in experiment [4], 3.79 µM; in [5], 20.7 µM; in experiment [6], 38.6 µM. Further, the GI50 is 19 µM in [8], 0.465 µM in experiment [9] and 0.653 µM in experiment [10]. Further, the TGI in experiment [1], in [2], in experiment [3], in experiment [4], in [5] and in [6] was more than 100 µM in each case. Moreover, the TGI in experiment [7], in experiment [8], in experiment [9] and in experiment [10] was more than 100 µM each time.
On to `C1CC[N-]CC1.CC(=N\O)/C(C)=N/O.CC(=N\O)/C(C)=N/O.C[CH-]C(C)O.[Co+2]`, for which the GI50 in experiment [1] is 18.2 µM; in experiment [2], 33.9 µM; in experiment [3], 19.3 µM; in experiment [4], 20.8 µM; in experiment [5], 31.7 µM; in experiment [6] it was 49.6 µM. Besides, the GI50 in experiment [7] was 14.5 µM; in experiment [8], 17.4 µM; in experiment [9], 10.3 µM; in experiment [10] it was 21.7 µM. In addition, the TGI is 36.7 µM in experiment [1]; more than 100 µM in experiment [2]; 45.8 µM in [3]; 45.1 µM in experiment [4]; more than 100 µM in experiment [5]; more than 100 µM in experiment [6]. In addition, the TGI was found to be 45.7 µM in [7], 51.7 µM in [8], 22 µM in experiment [9] and 85.9 µM in experiment [10].
In the case of `NC1=Nc2ccccc2Sc2ccccc21`, the TGI in experiment [1], in experiment [2], in [3], in experiment [4], in experiment [5] and in experiment [6] was more than 100 µM in each case. The TGI in experiment [7], in experiment [8], in experiment [9] and in experiment [10] was more than 100 µM throughout.
For `Cc1c(Cl)cccc1NC(=O)C(=O)c1c(O)c2ccc(O)cc2oc1=O`, the TGI in [1], in experiment [2], in [3], in experiment [4], in experiment [5] and in experiment [6] was more than 100 µM throughout. The TGI in [7], in experiment [8], in [9] and in [10] was more than 100 µM in each case.
Turning to `O=C1C(OC(=O)c2ccccc2)=C(c2ccc(O)cc2)C(=O)C(OC(=O)c2ccccc2)=C1c1ccc(O)cc1`, the TGI in [1], in experiment [2], in experiment [3], in experiment [4], in [5] and in experiment [6] was more than 100 µM in each case. For the same compound, the TGI in experiment [7], in [8] and in [9] was more than 100 µM throughout.
As to `Oc1ccc(O)c(-n2cccn2)c1-n1cccn1`, the TGI in experiment [2] was more than 100 µM; in experiment [3] it was more than 100 µM; in experiment [4], more than 100 µM; in experiment [5] it was more than 100 µM; in experiment [6] it was more than 100 µM; in experiment [7], more than 10 µM. Moreover, the TGI is more than 100 µM in experiment [8], 73.1 µM in [9] and more than 100 µM in experiment [10].
Consider `C=C1C(=O)OC2(C)CCC1CC1OC1(C)CCC=C(C)CCC2O` (stereo not given), for which the TGI in experiment [1], in experiment [2], in experiment [3], in experiment [4], in experiment [5] and in experiment [6] was more than 100 µM throughout. For the same compound, the TGI in [7], in experiment [8] and in experiment [9] was more than 100 µM each time.
